Several values for one entry are separate records, joined by “and”; a condition that tells them apart may be missing. Equal values may be shown once. Entries after “also recorded” stand apart in the source; their conditions may differ. Read-outs that look alike come from different tables or passages of the source.
Key:
[1] = system: BCRP; conditions: read-out: IC50 BCRP; BCRP-mediated RSV transport, membrane vesicles; ref Varma et al. (2019); cited from earlier work
[2] = system: human primary hepatocytes; test: Cytotoxicity (MTT, AST, LDH) in cryopreserved human hepatocytes; format: cell-based
Method: Cytotoxicity was determined with MTT assay in cryopreserved human hepatocytes. Thawing and plating of cryopreserved hepatocytes were carried out according to the manufacturer’s protocol. […] 11 μL of 5 mg/ml MTT was added to each well of the plate, and then the plate was incubated at 37°C for 3–4 h. After the medium was aspirated, 150 μL of DMSO was added to dissolve the formazan. The absorbance at 570 nm was measured and corrected for background absorption at 690 nm using a SpectraMax® i3 plate reader (Molecular Devices, Silicon Valley, CA, United States). AST and LDH levels in the medium of parallel processed plates were measured by commercially available assay kits. […] All experiments were performed in triplicate.

[3] = Plasma pharmacokinetic study in rats
Method: For the plasma pharmacokinetic study, 16 rats were randomly assigned into four groups (n = 4, each group, groups I to IV) and received oral (p.o.) administrations as oral gavage of CP (27 mg/kg) or the same volume of vehicle control for 20 days. Then, the rats were made to fast overnight before dosing but with free access to water. On day 21, rats in group I were treated with a p.o. dose as oral gavage of CP at 27 mg/kg and a single intravenous (i.v.) dose of RSV at 5 mg/kg. Rats in group II were treated with a p.o. dose as oral gavage of vehicle control and a single i.v. dose of RSV at 5 mg/kg. Rats in group Ⅲ were treated with a p.o. dose as oral gavage of CP at 27 mg/kg and a p.o. dose as oral gavage of RSV at 5 mg/kg. Rats in group Ⅳ were treated with a p.o. dose as oral gavage of vehicle control and a p.o. dose as oral gavage of RSV at 5 mg/kg. Blood samples (0.15 ml) were collected at 0, 1, 2, 5, 15, 30, 60, 120, 180, 360, 480, 600, and 720 min after administration of the i.v. dose of the RSV group and at 0, 5, 30, 60, 120, 180, 360, 480, 600, and 720 min for the p.o. dose as oral gavage of the RSV group. After each sampling, a volume of 0.15 ml physiologic saline solutions was administered to sustain isotonic fluid balance. Plasma samples were harvested by using a centrifuge and then stored at −80°C until analysis by LC-MS/MS.
A Shimadzu LC-30AD liquid chromatography system (Shimadzu, Kyoto, Japan) and an API4000 triple quadruple tandem mass spectrometer (Applied Biosystems/Sciex, Framingham, MA, United States) coupled with an ESI source was used for the LC-MS/MS analysis of in vivo samples. The separation was carried out on an Agilent Extend C18 column (1.8 µm, 4.6 mm × 30 mm, Agilent Technologies). The mobile phase consisting of acetonitrile (A) and water (B: 1 mM ammonium acetate and 1% (V/V) formic acid). […] The flow rate was 1 ml/min and the gradient elution method was as follows: 0.01 min (10% A)-0.4 min (10% A), 0.8 min (95% A)-2.0 min (95% A), and 2.3 min (10% A)-2.5 min (stop).
Phoenix WinNonlin® 7.1 (Pharsight Corporation, Mountain View, CA, United States) was used to calculate the pharmacokinetic parameters by the noncompartmental method. IC50 values were obtained by a computer-generated nonlinear least squares fit using GraphPad Prism 8.1 (GraphPad Software, San Diego, CA, United States). Statistical analysis was performed using SPSS ver. 22.0 (IBM, Chicago, IL, United States). The results are presented as mean ± S.D., unless otherwise stated. After testing for the homogeneity of variance, statistical analysis was performed with a one-way ANOVA followed by the LSD post hoc test or unpaired Student’s t-test. A probability (p) of less than 0.05, 0.01, and 0.001 was considered to be statistically significant, highly significant, and extremely significant, respectively.

[4] = for I2, maximal theoretical gastrointestinal concentration: dose/250 ml; for Imax,u, unbound steady-state plasma peak concentration: fu×I1
[5] = system: human primary hepatocytes
Method: Cytotoxicity was determined with MTT assay in cryopreserved human hepatocytes. Thawing and plating of cryopreserved hepatocytes were carried out according to the manufacturer’s protocol. Primary human hepatocytes at a density of 7×10^4 cells/well were cultured for 24 h after plating in 96-well collagen-coated plates. Then, the hepatocytes were treated with varying concentrations of RSV, CP, RSV plus CP, or tamoxifen and incubated for 24 or 96 h at 37°C. 11 μL of 5 mg/ml MTT was added to each well of the plate, and then the plate was incubated at 37°C for 3–4 h. After the medium was aspirated, 150 μL of DMSO was added to dissolve the formazan. The absorbance at 570 nm was measured and corrected for background absorption at 690 nm using a SpectraMax® i3 plate reader (Molecular Devices, Silicon Valley, CA, United States). AST and LDH levels in the medium of parallel processed plates were measured by commercially available assay kits. […] All experiments were performed in triplicate.
A Shimadzu LC-20AD liquid chromatography system (Shimadzu, Kyoto, Japan) and an API5000 triple quadrupole tandem mass spectrometer (Applied Biosystems/Sciex, Framingham, MA, United States) coupled with an electrospray ionization (ESI) source was used for the determination of in vitro samples. Chromatographic separation was conducted with gradient elution on a Synergi Hydro-RP column (30 × 2.0 mm, 4 μm, Phenomenex, Torrance, CA, United States). […] The mobile phase consisted of methanol (A) and water (B), both containing 0.1% (V/V) formic acid. The flow rate was 0.5 ml/min and the gradient elution was run using the following program: 0.01 min (15% A)-1.0 min (95% A), 1.5 min (95% A)-1.51 min (15% A), 2.5 min (stop).

[6] = system: OATP1B1; conditions: cited from earlier work
[7] = rats, p.o. RSV (group III vs IV)
[8] = rats, p.o. RSV (group III vs IV), not significant
[9] = 96 h co-exposure with 100 µM CP vs without CP

COC(=O)[C@H](c1ccccc1Cl)N1CCc2sccc2C1 [CP, clopidogrel]
IC50 [1]: 104 µM | Cytotoxicity (MTT) ([2]; 24 and 96 h incubation): no effect on cell viability; also recorded: did not show hepatotoxic effects | AST level in medium ([2]; 96 h, presence of 100 µM CP): trend of increase | LDH level in medium ([2]; 96 h, presence of 100 µM CP): missed statistical significance | Plasma concentration ([3]; rats, after 8 h post-dosing): undetectable | Iin,max,u, steady-state unbound liver inlet concentration ([4]; 75 mg CP): 0.31 µM | I2, maximal theoretical gastrointestinal concentration ([4]; 75 mg CP): 932.19 µM | Imax,u, unbound steady-state plasma peak concentration ([4]; 75 mg CP): 0.00002 µM | Iin,max,u, steady-state unbound liver inlet concentration ([4]; 300 mg CP): 1.24 µM | I2, maximal theoretical gastrointestinal concentration ([4]; 300 mg CP): 3,728.77 μM | Imax,u, unbound steady-state plasma peak concentration ([4]; 300 mg CP): 0.00018 µM | Free medium concentration ([5]; human): 0.026 to 0.40 nM | IC50 ([6]; substrate cerivastatin, ref Tamraz et al. (2013), read-out: IC50 OTAP1B1 (cerivastatin, CER, as substrate)): 3950 nM | IC50 ([6]; substrate estradiol 17β-glucuronide, ref Elsby et al. (2016), read-out: IC50 OTAP1B1 (estradiol 17β-glucuronide, e17βG, as substrate)): 1800 nM

CC(C)c1nc(N(C)S(C)(=O)=O)nc(-c2ccc(F)cc2)c1/C=C/[C@@H](O)C[C@@H](O)CC(=O)O [RSV, rosuvastatin]
Cytotoxicity (MTT) ([2]; 96 h, co-incubation with 100 µM CP where combined): dose-dependent cytotoxicity | Vss (Vss/F) ([3]; rat plasma, Group II: single i.v. RSV 5 mg/kg + p.o. vehicle control): 1,148.40 ± 701.23 ml/kg | RSV AUC in presence of CP relative to absence ([3]; rats, i.v. RSV): 1.76 fold | Decrease of RSV CL by multiple p.o. doses of CP ([3]; rats, i.v. RSV (group I vs II)): 42.62% and 42.6% | Increase of RSV plasma AUC0-infinity by multiple p.o. doses of CP ([3]; rats, i.v. RSV (group I vs II)): 76.29% | Increase of RSV plasma AUC0–12h by multiple p.o. doses of CP ([3]; rats, i.v. RSV (group I vs II)): 75.55% | Increase of RSV Cmax by multiple p.o. doses of CP ([3]; rats, i.v. RSV (group I vs II), not significant): 110.32% | RSV AUC in presence of CP relative to absence ([3]; rats, p.o. RSV): 1.87 fold | Decrease of RSV CL by multiple p.o. doses of CP [3, 7]: 43.27% and 43.3% | Increase of RSV plasma AUC0-infinity by multiple p.o. doses of CP [3, 7]: 87.48% | Increase of RSV plasma AUC0–12h by multiple p.o. doses of CP [3, 7]: 67.27% | Decrease of RSV Vss by multiple p.o. doses of CP [3, 8]: 49.42% | Increase of RSV Cmax by multiple p.o. doses of CP [3, 8]: 43.90% | clearance ([3]; read-out: CL (CL/F), rat plasma, Group II: single i.v. RSV 5 mg/kg + p.o. vehicle control): 59.1 mL/min/kg | Cell to medium concentration ratio of RSV [5, 9]: significantly increased; also recorded: significantly enhanced | Intracellular concentration of RSV [5, 9]: significantly increased; also recorded: significantly enhanced

Reference: article PMC8504577, “Evaluation of a Clinically Relevant Drug–Drug Interaction Between Rosuvastatin and Clopidogrel and the Risk of Hepatotoxicity” (Frontiers in Pharmacology, 2021)
